Measurements published in patent US20240025906A1 (NEURON23, INC., priority 2022, published 2024).
Where two headings read alike, the source gives them in different places.

Tests used:
TYK2 JH2 = target: T1, TYK2 JH2 (Homo sapiens, UniProt P29597); test: TYK2 JH2 binding assay (KINOMEscan KdELECT competitive binding); conditions: TYK2 JH2 domain
T1 construct: purchased DiscoverX (KINOMEscan KdELECT service); host or cells: E. coli BL21-derived (T7 phage display) or HEK-293
Procedure, shortened: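 Test compounds were titrated in 11 three-fold steps against JH2 fragment captured on ligand-loaded magnetic beads, with 1 h incubation at room temperature and DMSO at 0.9%. Eluted kinase was quantified by qPCR, and Kd was fitted from the dose series.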

[1] = system: JAK1/TYK2 pSTAT5 (Tyr694/699) in THP-1 cell line; test: IFNa-stimulated JAK1/TYK2 pSTAT5 (Tyr694/699) inhibition cellular assay, AlphaLISA; format: cell-based; conditions: Homo sapiens, THP-1 cells, AlphaLISA (Assay B)
Procedure, shortened: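 THP-1 cells (2e4/well) in HBSS preincubated 1 h at 37° C. with compound (final 10000–0.04 nM, 8 points, 6-fold), then stimulated with IFNa (100 ng/mL stock) for 30 min before lysis. pSTAT5 (Tyr694/699) read by AlphaLISA at 615 nm; IC50 from four-parameter logistic fit with bottom fixed at 0 and Hill slope at −1.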

[2] = DiscoverX KINOMEscan KdELECT (Assay A), read-out: Biochemical TYK2_DiscoverX_JH2_BND_Kd
[3] = IFNa-stimulated, read-out: Cellular_THP1_IFNa-pSTATS_TYK2
[4] = KINOMEscan KdELECT (Assay A), read-out: Biochemical TYK2_DiscoverX_JH2_BND_Kd
[5] = IFNa-stimulated pSTAT5 (Tyr694/699), read-out: Cellular_THP1_IFNa-pSTATS_TYK2

T1 sequence (P29597 589-875 limits assumed): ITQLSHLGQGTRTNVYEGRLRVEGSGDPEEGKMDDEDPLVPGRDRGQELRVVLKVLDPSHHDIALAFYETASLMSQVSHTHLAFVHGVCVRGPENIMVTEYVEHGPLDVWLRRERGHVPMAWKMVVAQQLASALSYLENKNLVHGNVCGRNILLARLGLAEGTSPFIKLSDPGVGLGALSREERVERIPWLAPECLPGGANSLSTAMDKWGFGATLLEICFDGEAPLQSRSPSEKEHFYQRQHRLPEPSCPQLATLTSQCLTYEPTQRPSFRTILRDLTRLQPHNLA

Compound	Kd (TYK2 JH2; [2])	IC50 [1, 3]	Kd (TYK2 JH2; [4])	also measured
CNc1ncc(-c2nc3cc(OC)ccc3o2)c2cc(NC(=O)C3(O)CC3)ncc12 [Example 404, 1-hydroxy-N-(5-(5-methoxybenzo[d]oxazol-2-yl)-8-(methylamino)-2,7-naphthyridin-3-yl)cyclopropane-1-carboxamide]	≤ 100 nM	≤ 500 nM		
CNc1ncc(-c2nc3cc(OC)ccc3o2)c2cc(NC(=O)[C@@H]3C[C@@H]3C)ncc12 (racemic) [Example 383, N-(5-(5-methoxybenzo[d]oxazol-2-yl)-8-(methylamino)-2,7-naphthyridin-3-y1)-2-methylcyclopropane-1-carboxamide]	≤ 100 nM	≤ 500 nM		
CNc1ncc(-c2nc3cc(OC)ccc3o2)c2cc(NC(=O)[C@H]3C[C@H]3C(C)(C)O)ncc12 (racemic) [Example 405, 2-(2-hydroxypropan-2-yl)-N-(5-(5-methoxybenzo[d]oxazol-2-yl)-8-(methylamino)-2,7-naphthyridin-3-yl)cyclopropane-1-carboxamide]	≤ 100 nM	≤ 500 nM		
CNc1ncc(-c2nc3nc(C)ccc3o2)c2cc(NC(=O)C3CC3)ncc12 [Example 460, N-(8-(methylamino)-5-(5-methyloxazolo[4,5-b]pyridin-2-yl)-2,7-naphthyridin-3-yl)cyclopropanecarboxamide]	≤ 100 nM	≤ 500 nM		
CNc1ncc(C2CCCOC2)c2cc(NC(=O)C3CC3)ncc12 (stereo not shown) [Example 78, N-(8-(methylamino)-5-(tetrahydro-2H-pyran-3-yl)-2,7-naphthyridin-3-yl)cyclopropanecarboxamide]				Kd (TYK2 JH2; KINOMEscan KdELECT (Assay A), read-out: Biochemical TYK2_JH2_Kd): ≤ 100 nM; IC50 ([1]; IFNa-stimulated, read-out: Cellular THP1_IFNa-pSTATS_IC50): > 500 nM
CNc1ncc(-c2nc3cc(Cl)ccc3o2)c2cc(NC(=O)C3CC3)ncc12 [Example 212, N-(5-(5-chlorobenzo[d]oxazol-2-yl)-8-(methylamino)-2,7-naphthyridin-3-yl)cyclopropanecarboxamide]	≤ 100 nM	≤ 500 nM		

Second part, led by results:

Kd (TYK2 JH2; [2])	IC50 [1, 3]	Kd (TYK2 JH2; [4])	Compound	also measured
	≤ 500 nM	≤ 100 nM	CNc1ncc(C#Cc2ccc(OC)cc2Cl)c2cc(NC(=O)C3CC3)ncc12 [Example 635, N-(5-((2-chloro-4-methoxyphenyl)ethynyl)-8-(methylamino)-2,7-naphthyridin-3-yl)cyclopropanecarboxamide]	
		≤ 100 nM	CNc1ncc(-c2nc3cc(N4CCOCC4)ccc3o2)c2cc(NC(=O)[C@H]3C[C@H]3C(F)F)ncc12 (single isomer, unassigned) [Example 1064]	IC50 [1, 5]: ≤ 500 nM
	≤ 500 nM	≤ 100 nM	CNc1ncc(C#Cc2ccc(C(C)(F)F)cc2)c2cc(NC(=O)C3CC3)ncc12 [Example 655]	
		≤ 100 nM	CNc1ncc(C#Cc2ccc(-n3ncccc3=O)cc2)c2cc(NC(=O)C3CC3)ncc12 [Example 998, N-(8-(methylamino)-5-((4-(6-oxopyridazin-1(6H)-yl)phenyl)ethynyl)-2,7-naphthyridin-3-yl)cyclopropanecarboxamide]	IC50 [1, 5]: ≤ 500 nM
	≤ 500 nM	≤ 100 nM	CNc1ncc(C#Cc2cc3c(F)cccn3n2)c2cc(NC(=O)C3CC3)ncc12 [Example 721, N-(5-((4-fluoropyrazolo[1,5-a]pyridin-2-yl)ethynyl)-8-(methylamino)-2,7-naphthyridin-3-yl)cyclopropanecarboxamide]	
	≤ 500 nM	≤ 100 nM	CNc1ncc(C#Cc2cnc3ccccn23)c2cc(NC(=O)C3CC3)ncc12 [Example 633, N-(5-(imidazo[1,2-a]pyridin-3-ylethynyl)-8-(methylamino)-2,7-naphthyridin-3-yl)cyclopropanecarboxamide]	
≤ 100 nM	≤ 500 nM		CNc1ncc(-c2nc3ccc(N4CCOCC4)cn3n2)c2cc(NC(=O)C3(OC)CC3)ncc12 [Example 529, 1-methoxy-N-(8-(methylamino)-5-(6-morpholino-[1,2,4]triazolo[1,5-a]pyridin-2-yl)-2,7-naphthyridin-3-yl)cyclopropane-1-carboxamide]	
		≤ 100 nM	CNc1ncc(-c2cn3cc(N4CCO[C@@H](C)C4)ccc3n2)c2cc(NC(=O)C3CC3)ncc12 [Example 1052]	IC50 [1, 5]: ≤ 500 nM
